In PubChem BioAssay (NCI):
“And” between values parts separate entries of the source, which are not always exact repeats. Equal entries are not always repeated.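 96-well plates; 48 h exposure; 5 concentrations. Endpoints by linear interpolation between flanking doses. Not reached: highest tested concentration assigned. GI50 marks 50% less growth. TGI marks complete inhibition of growth.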

Assays:
Experiment in all cases: DTP human tumour cell line panel, 48 h
[1] = system: HCT-116 colon
[2] = system: M14 melanoma
[3] = system: MALME-3M melanoma
[4] = system: NCI-H23 lung
[5] = system: OVCAR-3 ovarian
[6] = system: SN12C renal
[7] = system: SW-620 colon
[8] = system: U251 CNS
[9] = system: UACC-257 melanoma
[10] = system: UO-31 renal

SMILES	TGI [1]	TGI [2]	TGI [3]	TGI [4]	TGI [5]	TGI [6]	TGI [7]	TGI [8]	TGI [9]	TGI [10]	GI50 [1]	GI50 [2]	GI50 [3]	GI50 [4]	GI50 [5]	GI50 [6]	GI50 [7]	GI50 [8]	GI50 [9]	GI50 [10]
COc1ccc(Nc2nc3c(N)cc(C(F)(F)F)cc3nc2-c2ccccc2)cc1	> 100 µM	> 100 µM	> 100 µM	> 100 µM	> 100 µM	> 100 µM	> 100 µM	> 100 µM	> 100 µM	> 100 µM	–	–	–	–	–	–	–	–	–	–
O=[N+]([O-])c1ccc([I+]c2ccccc2)cc1	17.5 µM and 3.8 µM	16.4 µM and 4.33 µM	11.2 µM and 3.54 µM	5.98 µM and 2.74 µM	12.2 µM and 3.39 µM	3.26 µM and 2.89 µM	12.2 µM and 4.31 µM	10.9 µM and 3.43 µM	13.9 µM and 4.42 µM	11.9 µM	1.83 µM	1.97 µM	1.31 µM	1.23 µM	1.8 µM	1.4 µM	1.85 µM	1.71 µM	1.6 µM	–
COc1ccccc1NS(=O)(=O)c1cc(C(C)(C)C)ccc1OCCOc1ccc(C(C)(C)C)cc1S(=O)(=O)Nc1ccccc1OC	> 100 µM	> 100 µM	> 100 µM	> 100 µM	> 100 µM	> 100 µM	> 100 µM	> 100 µM	> 100 µM	> 100 µM	–	–	–	–	–	–	–	–	–	–
Nc1ncn([C@@H]2C=C(CO)C(O)C2O)c(=O)n1 (some centres undefined)	> 100 µM	> 100 µM	> 100 µM	> 100 µM	> 100 µM	> 100 µM	> 100 µM	> 100 µM	> 100 µM	> 100 µM	–	–	–	–	–	–	–	–	–	–
COc1cc2nc(-c3ccc(Cl)cc3)cc(OCCCN3CCC(O)CC3)c2cc1OC	11.3 µM	2.21 µM	4.95 µM	15 µM	28.3 µM	22.1 µM	13 µM	22.5 µM	4.56 µM	5.97 µM	1.44 µM	0.591 µM	1.89 µM	2.83 µM	3.24 µM	1.26 µM	3.05 µM	2.81 µM	2.06 µM	1.72 µM
CCOc1ccc(NC(=O)/C(=C/c2ccccc2)C(C)=O)cc1	17.5 µM	26 µM	31.6 µM	24.8 µM	25.3 µM	35 µM	33.2 µM	28.5 µM	27.9 µM	21.6 µM	–	–	–	–	–	–	–	–	–	–
C/C(=N\NC(=S)Nc1ccccc1)c1ccccn1	1.17 µM	2.17 µM	5.39 µM	5.22 µM	0.0538 µM	9.64 µM	2.94 µM	2.39 µM	0.384 µM	2.75 µM	< 0.01 µM	0.0624 µM	0.121 µM	0.0191 µM	< 0.01 µM	0.355 µM	0.0242 µM	0.0366 µM	0.032 µM	0.0565 µM
Cc1ccc(NC(=O)CCC(=O)C2CC(=O)CCC2=O)cc1C (centres undefined)	> 100 µM	> 100 µM	> 100 µM	> 100 µM	> 100 µM	> 100 µM	> 100 µM	> 100 µM	> 100 µM	> 100 µM	–	–	–	–	–	–	–	–	–	–
O=S(=O)(Nc1ccc2ccc3cccc4ccc1c2c34)c1ccccc1	> 100 µM	> 100 µM	> 100 µM	> 100 µM	48.9 µM	65.4 µM	> 100 µM	> 100 µM	> 100 µM	> 100 µM	–	–	–	–	–	–	–	–	–	–
CCN(CC)c1ccc(/C=C/C2=[N+](C)c3ccccc3C2(C)C)cc1	22.1 µM	19.5 µM	3.29 µM	25.8 µM	13.2 µM	13.8 µM	19.4 µM	21.6 µM	14.6 µM	18.1 µM	0.181 µM	0.581 µM	0.29 µM	0.181 µM	0.281 µM	0.342 µM	0.36 µM	0.201 µM	0.375 µM	3.26 µM
COC(=O)CC(CC(=O)C(=O)OC)C(=O)OC (centres undefined)	> 100 µM	> 100 µM	> 100 µM	> 100 µM	> 100 µM	> 100 µM	> 100 µM	> 100 µM	> 100 µM	> 100 µM	–	–	–	–	–	–	–	–	–	–
CC1(C)CC(C2CC(C)(C)CC(C)(C)[C@H]2O)[C@@H](O)C(C)(C)C1 (some centres undefined)	> 100 µM	> 100 µM	> 100 µM	> 100 µM	> 100 µM	> 100 µM	> 100 µM	> 100 µM	> 100 µM	> 100 µM	–	–	–	–	–	–	–	–	–	–
O=C(O)Cc1ccccc1	> 1000 µM	> 2000 µM	> 1000 µM and 1970 µM	> 2000 µM	> 2000 µM	> 2000 µM	> 2000 µM	> 2000 µM	> 2000 µM	> 2000 µM	> 1000 µM	> 1000 µM	> 1000 µM	> 1000 µM	–	> 1000 µM	> 1000 µM	> 1000 µM	> 1000 µM	–
COC1C2c3ccccc3C(C#N)(Cc3ccc4c(c32)OCO4)N1C(=O)c1ccccc1 (centres undefined)	> 100 µM	> 100 µM	> 100 µM	> 100 µM	> 100 µM	> 100 µM	> 100 µM	> 100 µM	> 100 µM	> 100 µM	–	–	–	–	–	–	–	–	–	–
O=C(/C=C/c1cccnc1)/C=C/c1cccnc1	0.321 µM	4.62 µM	5.31 µM	6.7 µM	2.33 µM	12.7 µM	2.48 µM	1.78 µM	20.3 µM	1.89 µM	0.164 µM	1.84 µM	1.97 µM	2.33 µM	1.07 µM	2.99 µM	0.724 µM	0.547 µM	7.63 µM	0.562 µM
COc1cc2c(cc1OCCCN1CCN(CCCOc3cc4c(cc3OC)C(=O)C3CCC[C@H]3C=N4)CC1)N=C[C@@H]1CCCC1C2=O (some centres undefined)	> 100 µM	22.7 µM	21.5 µM	14.1 µM	60.6 µM	> 100 µM	> 35 µM	> 100 µM	> 46.4 µM	> 51.3 µM	12.1 µM	6.25 µM	2.83 µM	5.42 µM	8.17 µM	10.4 µM	1.19 µM	4.91 µM	13 µM	17.1 µM
CCN1N=CSC12C(=O)N(c1ccccc1)C(=O)N2c1ccccc1 (centres undefined)	> 100 µM	> 100 µM	> 100 µM	> 100 µM	> 100 µM	> 100 µM	> 100 µM	> 100 µM	> 100 µM	> 100 µM	–	–	–	–	–	–	–	–	–	–
COC(=O)Oc1nn(C(=O)OC)c(=O)c2ccccc12 (tested in a mixture with another compound)	> 100 µM	> 100 µM	> 100 µM	> 100 µM	> 100 µM	> 100 µM	> 100 µM	> 100 µM	> 100 µM	> 100 µM	–	–	–	–	–	–	–	–	–	–
COC(=O)C1(C)CCc2c(ccc3ccccc23)C1=O (centres undefined)	> 100 µM	83.8 µM	69 µM	> 100 µM	> 100 µM	> 100 µM	> 100 µM	> 100 µM	55.2 µM	> 100 µM	–	–	–	–	–	–	–	–	–	–
Cn1cc(-c2csc(-c3cn(C)c4ncccc34)n2)c2ccccc21	19 µM	> 41.4 µM	41 µM	20.6 µM	1.3 µM	> 100 µM	> 100 µM	13.3 µM	> 100 µM	> 66.4 µM	0.354 µM	0.256 µM	0.647 µM	0.752 µM	0.143 µM	3.07 µM	0.26 µM	0.404 µM	13 µM	0.71 µM
CC1OC(OC2C(OC3CCC4(C)C(CCC5(C)C4CC=C4C6CC(C)(C)CCC6(CO)C(O)CC45C)C3(C)C)OC(C(=O)O)C(OC3OC(COC4OC(CO)C(O)C(O)C4O)C(O)C(O)C3O)C2O)C(O)C(O)C1O (centres undefined)	9.21 µM	9.24 µM	18.8 µM	4.67 µM	24.7 µM	9.19 µM	24.2 µM	22.1 µM	26.3 µM	15.9 µM	2.05 µM	2.5 µM	7.58 µM	1.77 µM	12.7 µM	2.46 µM	12.5 µM	10.2 µM	13.2 µM	5.45 µM
O=C1/C(=C\c2ccccc2)CN(C(=O)c2ccccc2F)C/C1=C\c1ccccc1	1.03 µM	7.12 µM	4.75 µM	4.84 µM	5.35 µM	3.48 µM	3.48 µM	3.26 µM	4.79 µM	3.24 µM	0.321 µM	2.51 µM	2.24 µM	2.13 µM	2.36 µM	1.77 µM	1.52 µM	1.68 µM	2.15 µM	1.53 µM
Cn1cc(-c2nonc2-c2cn(C)c3ccc(Br)cc23)c2ccccc21	> 100 µM	> 100 µM	> 100 µM	> 100 µM	8.61 µM	> 100 µM	> 100 µM	> 100 µM	–	> 100 µM	4.3 µM	3.93 µM	4.86 µM	4.72 µM	2.8 µM	5.25 µM	2.53 µM	3.93 µM	–	3.39 µM
Fc1cccc(C=NC23CC4CC(CC(C4)C2)C3)c1	> 100 µM	> 100 µM	> 100 µM	> 100 µM	> 100 µM	> 100 µM	–	> 100 µM	> 100 µM	> 100 µM	–	–	–	–	–	–	–	–	–	–
